Laboratory results from PMC4729491, “The Cellular Thioredoxin-1/Thioredoxin Reductase-1 Driven Oxidoreduction Represents a Chemotherapeutic Target for HIV-1 Entry Inhibition” (PLoS ONE, 2016).
Entries after “also recorded” stand apart in the source; their conditions may differ.

Columns and labels:
HIV-2(ROD) = experiment: Inhibition of HIV-2(ROD)-induced giant cell formation in CEM cell cultures; assay type: cell-based; conditions: CEM cells
Protocol: To study the antiviral activity in transformed cells, CEM cells were suspended in fresh culture medium and infected with HIV-1(IIIB) or HIV-2(ROD) at 100 x CCID50 (cell culture infective dose 50%) per ml of cell suspension. Infected cell suspension (100 μl; 3 x 10^5 cells/ml) was transferred to a 96-well microplate, mixed with 100 μl of the appropriate dilutions of compounds, and further incubated at 37°C. After 4 days, giant cell formation was recorded microscopically and the number of giant cells was estimated microscopically as percentage of the number of giant cells present in the non-treated virus-infected cell cultures.

HIV-1(BaL) = experiment: Antiviral activity in PHA-stimulated PBMCs (p24 ELISA), HIV-1(BaL); assay type: cell-based; conditions: PHA-stimulated PBMCs; mean ± SD; read-out: EC50 HIV-1 (BAL)
Protocol: (§1) To test the antiviral activity in fresh, PHA-stimulated PBMCs, an experiment was performed as previously described. Briefly, the cells were preincubated with HIV-1(IIIB), HIV-1(BaL) or HIV-1(HE) for 1 h at 37°C, using a viral load of 1000 x CCID50 per ml. Then, cell suspensions containing virus and 2 x 10^5 PBMCs were seeded in a 96-well microtiter plate and a serial dilution of compound was added, in a total volume of 200 μl. After 4 days, the cells were passaged and fresh culture medium, containing IL-2 and compound, was added. Three days later, cellular supernatants were harvested and viral replication in the presence of the compounds was quantified using a p24 enzyme-linked immunosorbent assay (ELISA) (Perkin Elmer, Brussels, Belgium). The half maximal effective concentration (EC50) was defined as the compound concentration that is required to block viral replication by 50%.

HIV-1(HE) = experiment: Antiviral activity in PHA-stimulated PBMCs (p24 ELISA), HIV-1(HE); assay type: cell-based; conditions: PHA-stimulated PBMCs; mean ± SD; read-out: EC50 HIV-1 (HE)
Protocol: as §1

PHA-stimulated PBMCs = experiment: Toxicity in PHA-stimulated PBMCs (trypan blue cell counting); assay type: cell-based, human; conditions: proliferation of seven-day drug-exposed PHA-stimulated PBMCs; mean ± SD; read-out: IC50 PBMC
Protocol: A similar experiment was performed to study the toxicity of the compounds in fresh, PHA-stimulated, PBMCs. Mock-infected PBMCs (2 x 10^5 cells) were exposed to a serial dilution of compound, in a total volume of 200 μl. Cells were passaged after 4 days. Cell survival and proliferation was assessed at day 7 using trypan blue-based cell counting with the Countess Automated Cell Counter (Invitrogen, Ghent, Belgium). The IC50 was defined as the concentration of the compound that inhibited cell proliferation by 50%.

HIV-1(IIIB) = assay type: cell-based; conditions: MT-4 cells, p24 ELISA at 31 h; TE-2 at 50 μM
Protocol: Two time-of-drug-addition (TOA) experiments were performed and adopted from previously reported methods. Briefly, MT-4 cells were infected with HIV-1(IIIB) at a multiplicity of infection of 0.5. Following a 1 hour adsorption period, cells were washed, distributed in a 96-well tray at 100,000 cells per 200 μl per well and incubated at 37°C.
For the first experiment, test compounds were added to the infected cell cultures at different time points (i.e. 0, 1, 2, 3, 4, 5, 6, 7, 8, 9, 24, and 25 h) after the start of infection.
In a second experiment, the resolution of the assay was increased by evaluating early time points in more detail. Therefore, the test compounds were added to the infected cell cultures at the following time points after the start of infection: 0, 15, 30, 45, 100 and 180 min; and 24 as well as 25 h.
Product added at time points 0, 15, 30 and 45 min was present at the start of the viral infection and washed away after 1 hour. After washing, fresh product was added to maintain viral suppression throughout the remaining of the experiment.
HIV-1 production was determined at 31 h post infection via a p24 ELISA (Perkin Elmer, Brussels, Belgium).

PDI = PDI (Homo sapiens, UniProt P07237); experiment: SPR binding to immobilized PDI; conditions: 10, 50 and 250 μM
Chain of PDI (P07237 18-508, species assumed): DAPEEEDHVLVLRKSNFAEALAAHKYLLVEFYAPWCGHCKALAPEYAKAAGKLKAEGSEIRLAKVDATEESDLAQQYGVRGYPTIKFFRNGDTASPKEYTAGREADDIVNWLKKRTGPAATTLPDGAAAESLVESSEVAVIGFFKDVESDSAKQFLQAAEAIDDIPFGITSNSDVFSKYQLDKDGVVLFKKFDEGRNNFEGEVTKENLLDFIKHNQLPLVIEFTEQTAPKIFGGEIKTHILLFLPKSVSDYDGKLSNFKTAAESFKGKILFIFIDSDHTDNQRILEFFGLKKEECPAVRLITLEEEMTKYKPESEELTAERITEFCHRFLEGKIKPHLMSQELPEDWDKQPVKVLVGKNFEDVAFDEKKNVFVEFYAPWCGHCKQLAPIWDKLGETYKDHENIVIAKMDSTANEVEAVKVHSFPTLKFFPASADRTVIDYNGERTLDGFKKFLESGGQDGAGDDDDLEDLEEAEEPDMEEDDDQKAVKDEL
Protocol: SPR analysis was performed to evaluate binding of TE-2 to immobilized recombinant TrxR1, PDI, gp120, gp41 and sCD4. Therefore, these ligands were immobilized on a CM5 sensor chip (GE Healthcare, Uppsala, Sweden) using standard amine coupling in the presence of 10 mM sodium acetate, pH 5. A high ligand-density chip was created, with ligand densities of 6759, 5004, 4119, 2900 and 5569 RU, respectively. A reference flow cell was used to control for non-specific binding and refractive index changes. All interactions were studied at 25°C on a Biacore T200 instrument (GE Healthcare, Uppsala, Sweden) in HBS-P (10 mM HEPES, 150 mM NaCl and 0.05% surfactant P20; pH 7.4) supplemented with 10 mM CaCl2 and 5% DMSO. TE-2 was tested at the concentrations 10, 50 and 250 μM. Samples were injected during 2 minutes at a flow rate of 30 μl/min, followed by a dissociation phase of 2 minutes. Each injection was followed by a regeneration step with 50 mM NaOH (injected during 10 seconds at a flow rate of 100 μl/min).

HIV-1 = experiment: Infectivity (TZM-bl) of virus particles produced by ACH-2 cells in presence of compound; assay type: cell-based; conditions: ACH-2 cultures exposed to compound 3 days; supernatant 1:100 titrated on TZM-bl
Protocol: To measure the infectivity of particles produced in the presence of the compounds, washed persistently HIV-1-infected ACH-2 cells (1 x 10^6 cells/ml) were cultured with 100 nM PMA in the presence of the indicated concentration of compounds. After 3 days, the p24 content of the clarified supernatant (see virus expression) was measured. The cell supernatant was then used for an infectivity test (see infectivity assay) without the further addition of any compound to the cultures. The final dilution of the ACH-2 supernatant in the infectivity test was 1:100. A control experiment was performed, in which virus particles produced without the addition of compound, were used for the infectivity test. Additionally, the same amount of compound that could have been carried over with the virus containing supernatant in the original experiment was added to the infectivity test (final concentration: 1/100 of the indicated amount in the viral growth culture).

[1] = previously known structural properties ref 20-22; cited from earlier work

In the case of “6-(butyltelluro)-6-deoxy-β-cyclodextrin [TE-2]”, the “Ratio IC50/EC50 HIV-2 (CEM)” value (HIV-2(ROD)) is reported as 167, the EC50 (HIV-2(ROD); concentration required to protect against cytopathogenicity of HIV by 50%, mean ± SD, read-out: EC50 HIV-2 (ROD)) is reported as 1.5 ± 0.52 µM and the EC50 (HIV-1(BaL)) is reported as no less than 25 µM. The EC50 (HIV-1(HE)) was 6.6 ± 4.2 µM, the IC50 (PHA-stimulated PBMCs) was 54 ± 16 µM and the time-of-drug-addition profile (HIV-1(IIIB)) was “mostly lost when added at t = 1 h after infection; also recorded: profile resembling that of the fusion inhibitor enfuvirtide (T-20)”. The “SPR binding to PDI” value (PDI) was “dose-dependently interact with PDI”, the “infectivity of virus particles produced in presence of compound (normalized for equal p24)” value (HIV-1) was “substantially less infectious virus particles” and the Hydrophobicity [1] was “Hydrophilic”.
